Assay results reported in patent US10246453B2, “Benzenesulfonamide compounds and their use as therapeutic agents” (Xenon Pharmaceuticals Inc., priority 2016, dated 2019).
pIC50: −log10 of the molar value. Where a name gives a salt, the structure may show the parent alone.

Columns and labels:
NaV1.6 = NaV1.6 (Homo sapiens (Human), UniProt Q9UQD0); assay: Sodium Influx Assay (Flux), NaV1.6; conditions: read-out: Flux NaV1.6 IC50; Trex HEK293 cells, ANG2 dye; arithmetic mean
NaV1.5 = NaV1.5 (Homo sapiens (Human), UniProt Q14524); assay: Sodium Influx Assay (Flux), NaV1.5; conditions: read-out: Flux NaV1.5 IC50; Trex HEK293 cells, ANG2 dye; arithmetic mean
Sequence of NaV1.5 (Q14524 other isoform, or with tags, fused parts or gaps): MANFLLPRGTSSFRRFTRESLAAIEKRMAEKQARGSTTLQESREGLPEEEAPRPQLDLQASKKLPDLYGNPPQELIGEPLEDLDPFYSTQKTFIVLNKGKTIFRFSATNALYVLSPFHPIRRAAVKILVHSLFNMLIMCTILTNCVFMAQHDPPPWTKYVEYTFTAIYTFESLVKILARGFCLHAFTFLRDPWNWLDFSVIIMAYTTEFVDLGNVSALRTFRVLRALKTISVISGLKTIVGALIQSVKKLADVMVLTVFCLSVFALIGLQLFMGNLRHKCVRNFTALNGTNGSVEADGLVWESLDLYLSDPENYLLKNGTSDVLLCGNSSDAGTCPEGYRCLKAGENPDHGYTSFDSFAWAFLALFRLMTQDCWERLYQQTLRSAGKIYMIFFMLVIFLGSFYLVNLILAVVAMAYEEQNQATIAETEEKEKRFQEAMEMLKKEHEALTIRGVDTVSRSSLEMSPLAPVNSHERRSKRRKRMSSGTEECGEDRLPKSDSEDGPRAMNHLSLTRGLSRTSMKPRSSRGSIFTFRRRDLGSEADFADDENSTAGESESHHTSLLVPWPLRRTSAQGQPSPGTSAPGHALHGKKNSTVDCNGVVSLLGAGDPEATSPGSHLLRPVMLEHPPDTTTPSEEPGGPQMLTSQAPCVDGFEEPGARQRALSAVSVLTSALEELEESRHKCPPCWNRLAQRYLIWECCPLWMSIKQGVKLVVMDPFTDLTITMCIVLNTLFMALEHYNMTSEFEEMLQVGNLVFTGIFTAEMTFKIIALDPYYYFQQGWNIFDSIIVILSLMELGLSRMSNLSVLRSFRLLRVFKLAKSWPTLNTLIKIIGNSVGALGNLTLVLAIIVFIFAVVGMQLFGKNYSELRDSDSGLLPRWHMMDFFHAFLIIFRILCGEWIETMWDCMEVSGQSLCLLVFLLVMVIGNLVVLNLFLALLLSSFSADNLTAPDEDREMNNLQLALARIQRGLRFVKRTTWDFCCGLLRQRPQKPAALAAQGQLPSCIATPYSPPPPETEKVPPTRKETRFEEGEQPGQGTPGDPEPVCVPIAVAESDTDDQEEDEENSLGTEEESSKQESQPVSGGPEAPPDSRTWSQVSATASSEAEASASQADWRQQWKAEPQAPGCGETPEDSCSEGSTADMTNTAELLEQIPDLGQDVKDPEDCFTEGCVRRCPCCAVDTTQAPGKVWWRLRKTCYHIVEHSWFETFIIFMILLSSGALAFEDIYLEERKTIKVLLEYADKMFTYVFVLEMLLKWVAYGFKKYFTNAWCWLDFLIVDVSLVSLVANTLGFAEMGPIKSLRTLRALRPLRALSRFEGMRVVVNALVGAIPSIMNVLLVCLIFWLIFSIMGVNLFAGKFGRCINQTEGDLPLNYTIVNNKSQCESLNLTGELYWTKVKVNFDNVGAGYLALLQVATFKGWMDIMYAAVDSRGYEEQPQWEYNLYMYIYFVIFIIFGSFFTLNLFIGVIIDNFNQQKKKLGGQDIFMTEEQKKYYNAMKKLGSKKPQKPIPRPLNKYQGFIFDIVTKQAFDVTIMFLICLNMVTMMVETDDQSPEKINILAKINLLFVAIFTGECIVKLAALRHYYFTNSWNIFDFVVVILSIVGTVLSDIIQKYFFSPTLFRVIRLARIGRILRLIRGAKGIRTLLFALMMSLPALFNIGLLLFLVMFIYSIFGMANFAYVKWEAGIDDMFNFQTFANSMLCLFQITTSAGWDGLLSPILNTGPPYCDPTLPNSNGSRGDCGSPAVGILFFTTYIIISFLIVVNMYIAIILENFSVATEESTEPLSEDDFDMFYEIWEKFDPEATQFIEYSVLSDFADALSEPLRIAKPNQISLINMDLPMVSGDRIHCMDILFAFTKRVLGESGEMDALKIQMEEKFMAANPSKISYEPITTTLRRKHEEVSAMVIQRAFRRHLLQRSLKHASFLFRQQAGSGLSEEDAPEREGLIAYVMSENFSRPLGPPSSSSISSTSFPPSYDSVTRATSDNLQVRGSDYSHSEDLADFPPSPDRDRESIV

NaV1.1 = NaV1.1 (Homo sapiens (Human), UniProt P35498); assay: Sodium Influx Assay (Flux), NaV1.1; assay type: cell-based; conditions: Trex HEK293 cells, ANG2 dye; arithmetic mean

SMILES | pIC50 (NaV1.6) | pIC50 (NaV1.1) | pIC50 (NaV1.5)
Cc1cc(S(=O)(=O)Nc2cscn2)c(F)cc1N[C@@H]1CCN(Cc2ccccc2)C1 [Example 271, (R)-4-((1-benzylpyrrolidin-3-yl)amino)-2-fluoro-5-methyl-N-(thiazol-4-yl)benzenesulfonamide formate] | 5.39 | 5.06 | 5.09
Cc1cc(S(=O)(=O)Nc2cscn2)c(F)cc1O[C@H]1CCN(Cc2ccccc2)C1 [Example 273, (S)-4-((1-benzylpyrrolidin-3-yl)oxy)-2-fluoro-5-methyl-N-(thiazol-4-yl)benzenesulfonamide 2,2,2-trifluoroacetate] | 5.70 | 4.65 | 5.15
CCc1c(O[C@H]2CCN(Cc3ccccc3)C2)cc(F)c(S(=O)(=O)Nc2cscn2)c1F [Example 276, (S)-4-((1-benzylpyrrolidin-3-yl)oxy)-3-ethyl-2,6-difluoro-N-(thiazol-4-yl)benzenesulfonamide 2,2,2-trifluoroacetate] | 6.25 | 4.73 | 4.75
Cc1cc(S(=O)(=O)Nc2cscn2)c(F)cc1N(C)[C@H]1CCN(Cc2ccccn2)C1 [Example 278, (S)-2-fluoro-5-methyl-4-(methyl(1-(pyridin-2-ylmethyl)pyrrolidin-3-yl)amino)-N-(thiazol-4-yl)benzenesulfonamide 2,2,2-trifluoroacetate] | 6.05 | < 4.52 | < 4.52
Cc1cc(S(=O)(=O)Nc2cscn2)ccc1N(C)[C@H]1CCN(Cc2cc(F)ccc2F)C1 [Example 285, (S)-4-((1-(2,5-difluorobenzyl)pyrrolidin-3-yl)(methyl)amino)-3-methyl-N-(thiazol-4-yl)benzenesulfonamide 2,2,2-trifluoroacetate] | 6.41 | 5.36 | 5.57
CN(c1cc(F)c(S(=O)(=O)Nc2cscn2)c(F)c1)[C@H]1CCN(Cc2ccccc2)C1 [Example 286, (S)-4-((1-benzylpyrrolidin-3-yl)(methyl)amino)-2,6-difluoro-N-(thiazol-4-yl)benzenesulfonamide formate] | 5.65 | 5.64 | 5.70
CN(c1cc(F)c(S(=O)(=O)Nc2cscn2)c(F)c1)[C@H]1CCN(Cc2cccc(C(F)F)c2)C1 [Example 287, (S)-4-((1-(3-(difluoromethyl)benzyl)pyrrolidin-3-yl)(methyl)amino)-2,6-difluoro-N-(thiazol-4-yl)benzenesulfonamide 2,2,2-trifluoroacetate] | 5.18 | 5.11 | 5.08
Cc1cc(S(=O)(=O)Nc2cscn2)c(F)cc1N[C@H]1CCN(Cc2ccccc2)C1 [Example 288, (S)-4-((1-benzylpyrrolidin-3-yl)amino)-2-fluoro-5-methyl-N-(thiazol-4-yl)benzenesulfonamide 2,2,2-trifluoroacetate] | 5.36 | 4.80 | 4.56
C[C@H](c1cc(C(F)F)ccc1F)N1CCC(Oc2ccc(S(=O)(=O)Nc3cscn3)cc2Cl)CC1 [Example 292, (R)-3-chloro-4-((1-(1-(5-(difluoromethyl)-2-fluorophenyl)ethyl)piperidin-4-yl)oxy)-N-(thiazol-4-yl)benzenesulfonamide formate] | 5.56 | 5.42 | 5.73
CN(c1cc(F)c(S(=O)(=O)Nc2cscn2)cc1F)[C@H]1CCN(Cc2ccccc2)C1 [Example 293, (S)-4-((1-benzylpyrrolidin-3-yl)(methyl)amino)-2,5-difluoro-N-(thiazol-4-yl)benzenesulfonamide 2,2,2-trifluoroacetate] | 4.96 | < 4.52 | < 4.52
CN(c1ccc(S(=O)(=O)Nc2cscn2)cc1C(F)(F)F)[C@H]1CCN(Cc2ccccc2)C1 [Example 294, (S)-4-((1-benzylpyrrolidin-3-yl)(methyl)amino)-N-(thiazol-4-yl)-3-(trifluoromethyl)benzenesulfonamide formate] | 5.63 | 4.81 | 4.78
O=S(=O)(Nc1cscn1)c1ccc(OC2CCN(C3(c4ccccc4)CC3)CC2)c(Cl)c1 [Example 303, 3-chloro-4-((1-(1-phenylcyclopropyl)piperidin-4-yl)oxy)-N-(thiazol-4-yl)benzenesulfonamide] | 5.61 | 5.15 | 5.34
C[C@H](c1ccccc1)N1CCC(Oc2ccc(S(=O)(=O)Nc3ncc(F)cn3)cc2Cl)CC1 [Example 304, (R)-3-chloro-N-(5-fluoropyrimidin-2-yl)-4-((1-(1-phenylethyl)piperidin-4-yl)oxy)benzenesulfonamide] | 5.61 | < 4.52 | < 4.52
Cc1cc(S(=O)(=O)Nc2ccc(F)cn2)c(F)cc1N(C)[C@H]1CCN(Cc2ccccc2)C1 [Example 306, (S)-4-((1-benzylpyrrolidin-3-yl)(methyl)amino)-2-fluoro-N-(5-fluoropyridin-2-yl)-5-methylbenzenesulfonamide] | 5.34 | 5.17 | 4.92
Cc1cc(S(=O)(=O)Nc2cnsc2)c(F)cc1N(C)[C@H]1CCN(Cc2ccccc2)C1 [Example 307, (S)-4-((1-benzylpyrrolidin-3-yl)(methyl)amino)-2-fluoro-N-(isothiazol-4-yl)-5-methyl benzenesulfonamide formate] | 5.27 | 5.39 | 5.01
CCN(c1cc(F)c(S(=O)(=O)Nc2cscn2)cc1C)[C@H]1CCN(Cc2ccccc2)C1 [Example 312, (S)-4-((1-benzylpyrrolidin-3-yl)(ethyl)amino)-2-fluoro-5-methyl-N-(thiazol-4-yl)benzenesulfonamide 2,2,2-trifluoroacetate] | 5.56 | 4.99 | 5.19

More lines, main results first:

pIC50 (NaV1.6) | pIC50 (NaV1.1) | SMILES | pIC50 (NaV1.5)
5.73 | < 4.52 | O=S(=O)(Nc1cscn1)c1c(F)cc(O[C@H]2CCN(Cc3ccccc3)C2)c(Br)c1F [Example 274, (S)-4-((1-benzylpyrrolidin-3-yl)oxy)-3-bromo-2,6-difluoro-N-(thiazol-4-yl)benzenesulfonamide formate] | 5.00
6.13 | 4.53 | C=Cc1c(O[C@H]2CCN(Cc3ccccc3)C2)cc(F)c(S(=O)(=O)Nc2cscn2)c1F [Example 275, (S)-4-((1-benzylpyrrolidin-3-yl)oxy)-2,6-difluoro-N-(thiazol-4-yl)-3-vinylbenzenesulfonamide 2,2,2-trifluoroacetate] | 4.76
5.89 | 5.15 | CN(c1cc(F)c(S(=O)(=O)Nc2cscn2)cc1C1CC1)[C@H]1CCN(Cc2ccccc2)C1 [Example 289, (S)-4-((1-benzylpyrrolidin-3-yl)(methyl)amino)-5-cyclopropyl-2-fluoro-N-(thiazol-4-yl)benzenesulfonamide 2,2,2-trifluoroacetate] | 4.71
5.75 | 5.20 | CCc1cc(S(=O)(=O)Nc2cscn2)c(F)cc1N(C)[C@H]1CCN(Cc2ccccc2)C1 [Example 290, (S)-4-((1-benzylpyrrolidin-3-yl)(methyl)amino)-5-ethyl-2-fluoro-N-(thiazol-4-yl)benzenesulfonamide 2,2,2-trifluoroacetate] | 5.28
6.49 | < 4.52 | Cc1c(OC2CCN(Cc3ccccc3)CC2)ccc(S(=O)(=O)Nc2cscn2)c1F [Example 299, 4-((1-benzylpiperidin-4-yl)oxy)-2-fluoro-3-methyl-N-(thiazol-4-yl)benzenesulfonamide hydrochloride] | 4.57
5.67 | < 4.52 | C[C@@H](c1ccccc1)N1CCC(Oc2ccc(S(=O)(=O)Nc3ccncn3)cc2Cl)CC1 [Example 301, (S)-3-chloro-4-((1-(1-phenylethyl)piperidin-4-yl)oxy)-N-(pyrimidin-4-yl)benzenesulfonamide] | < 4.52
5.94 | 5.02 | Cc1c(N(C)[C@H]2CCN(Cc3ccccc3)C2)cc(F)c(S(=O)(=O)Nc2ccc(F)cn2)c1F [Example 302, (S)-4-((1-benzylpyrrolidin-3-yl)(methyl)amino)-2,6-difluoro-N-(5-fluoropyridin-2-yl)-3-methylbenzenesulfonamide formate] | 4.54
5.83 | 4.61 | Cc1cc(S(=O)(=O)Nc2cccc(F)n2)c(F)cc1N(C)[C@H]1CCN(Cc2ccccc2)C1 [Example 308, (S)-4-((1-benzylpyrrolidin-3-yl)(methyl)amino)-2-fluoro-N-(6-fluoropyridin-2-yl)-5-methylbenzenesulfonamide] | < 4.52
6.03 | 4.53 | C[C@H](c1ccccc1)N1CCC(Oc2ccc(S(=O)(=O)Nc3cscn3)c(F)c2F)CC1 [Example 313, (R)-2,3-difluoro-4-((1-(1-phenylethyl)piperidin-4-yl)oxy)-N-(thiazol-4-yl)benzenesulfonamide formate] | < 4.52
6.14 | < 4.52 | Cc1ccc(F)c(CN2CC[C@H](N(C)c3cc(F)c(S(=O)(=O)Nc4cscn4)cc3Cl)C2)n1 [Example 314, (S)-5-chloro-2-fluoro-4-((1-((3-fluoro-6-methylpyridin-2-yl)methyl)pyrrolidin-3-yl)(methyl)amino)-N-(thiazol-4-yl)benzenesulfonamide] | < 4.52
5.99 | 5.00 | CN(c1cc(F)c(S(=O)(=O)Nc2cscn2)cc1Cl)[C@H]1CCN(Cc2cccc(N3CCC3)n2)C1 [Example 317, (S)-4-((1-((6-(azetidin-1-yl)pyridin-2-yl)methyl)pyrrolidin-3-yl)(methyl)amino)-5-chloro-2-fluoro-N-(thiazol-4-yl)benzenesulfonamide 2,2,2-trifluoroacetate] | 5.09
